ChEMBL document CHEMBL1201862, “PubChem BioAssay data set” (2004)
Activity calls are given as the source filed them.

How the values were obtained:
HEK293 = test: inhibitors of LMP1-driven NF-kB reporter, dose response, cell-based, HEK293, luciferase, cherry-pick (AID 588343); format: functional; settings: Homo sapiens
Interleukin-8 = Interleukin-8 (Homo sapiens, UniProt P10145); test: Dose Response confirmation of uHTS small molecule hits for cystic fibrosis induced NFkb Inhibitors in a PAF-induced IL8 counterscreen.; format: functional; settings: read-out: IC50_Mean
Sequence of Interleukin-8 (P10145 whole entry): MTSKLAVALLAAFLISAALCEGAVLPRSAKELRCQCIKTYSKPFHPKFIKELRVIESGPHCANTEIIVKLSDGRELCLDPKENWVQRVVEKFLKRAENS

[1] = cytotoxicity in OVCAR8 ovarian cancer cells, dose response, PAX8 project, cell-based, plate reader, dry powder samples (AID 743197); format: functional; settings: OVCAR-8
Paired box protein Pax-8 = Paired box protein Pax-8 (Homo sapiens, UniProt Q06710); test: inhibitors of PAX8-driven TPO luciferase reporter, dose response, RMG-I cells, cherry-pick (AID 687027); format: functional, cell-based;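 note: luciferase reporter driven by Pax8 target thyroperoxidase promoter measured by SteadyGlo luminescence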
Sequence of Paired box protein Pax-8 (Q06710 whole entry): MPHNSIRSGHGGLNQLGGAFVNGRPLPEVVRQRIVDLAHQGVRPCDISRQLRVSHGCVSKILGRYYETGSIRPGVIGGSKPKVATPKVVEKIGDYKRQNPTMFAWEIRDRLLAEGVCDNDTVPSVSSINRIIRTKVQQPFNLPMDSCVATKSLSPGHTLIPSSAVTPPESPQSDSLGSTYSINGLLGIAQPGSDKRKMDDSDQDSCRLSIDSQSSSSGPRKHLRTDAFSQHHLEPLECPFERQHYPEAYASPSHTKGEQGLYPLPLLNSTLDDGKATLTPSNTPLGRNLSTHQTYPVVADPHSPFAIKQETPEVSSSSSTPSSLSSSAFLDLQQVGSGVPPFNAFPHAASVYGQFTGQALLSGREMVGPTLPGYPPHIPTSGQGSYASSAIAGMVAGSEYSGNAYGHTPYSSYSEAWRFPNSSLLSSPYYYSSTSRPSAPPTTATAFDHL

[2] = NIH:OVCAR-3 ovarian cancer cell cytotoxicity, dose response, PAX8 inhibitor project, plate reader, dry powder samples (AID 743044); format: functional, cell-based
[3] = control 3'UTR Renilla luciferase suppression, dose response, counter-screen for Shn3 inhibitor project, cell-based, Clone20-Shn3RL, cherry-picked (AID 624133); format: functional
Galanin receptor type 3 = Galanin receptor type 3 (Homo sapiens, UniProt O60755); test: Fluorescence-based cell-based primary high throughput dose response assay to identify antagonists of the Galanin Receptor 3 (GalR3).; format: functional
Sequence of Galanin receptor type 3 (O60755 whole entry): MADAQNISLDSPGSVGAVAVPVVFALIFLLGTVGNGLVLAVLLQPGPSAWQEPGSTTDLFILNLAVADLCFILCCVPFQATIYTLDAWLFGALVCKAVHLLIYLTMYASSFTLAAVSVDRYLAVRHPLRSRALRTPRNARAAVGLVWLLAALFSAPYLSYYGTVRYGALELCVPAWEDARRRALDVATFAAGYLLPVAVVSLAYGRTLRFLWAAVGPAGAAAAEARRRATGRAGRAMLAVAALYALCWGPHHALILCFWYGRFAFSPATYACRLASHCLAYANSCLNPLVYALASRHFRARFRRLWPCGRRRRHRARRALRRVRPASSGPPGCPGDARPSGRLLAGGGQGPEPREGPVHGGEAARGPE

[4] = HepG2 cell cytotoxicity, dose response, cytotoxicity control for Shn3 inhibitor project, CellTiter-Glo, cherry-picked (AID 624134); format: functional, cell-based
[5] = Shn3 3'UTR reporter inhibitors, dose response, cell-based, Clone20 osteoblasts, firefly luciferase, cherry-picked (AID 624132); format: functional;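 note: firefly luciferase luminescence from reporter carrying the Shn3 3'UTR in osteoblasts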
cells = format: functional, cell-based; settings: HEK-CNG
[6] = ZM109 Env clade C HIV-1 fusion inhibitors, dose response, HeLa effector, CEM target cells, luciferase, cherry-pick (AID 652058); format: functional, cell-based
[7] = off-target signal loss in HeLa-CEM21 co-culture – HeLa F-luc CTL cells, cherry-picked, counter-screen for HIV-1 Env fusion inhibitor project, dose response (AID 652040); format: functional, cell-based;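 note: potency for signal decrease marking cytotoxic or nonspecific inhibition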
[8] = inhibitors of clade B AD8 Env fusion, dose response, cell-based, cherry-pick (AID 652062); format: functional;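 note: luciferase signal from cell-cell fusion driven by HIV-1 clade B AD8 Env; potency is for inhibitors of fusion seen as a drop in luminescence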
[9] = inhibitors of HIV Env-driven cell fusion, dose response, cherry-pick (AID 652057); format: functional, cell-based
[10] = human group III sPLA2 inhibitors, dose response, biochemical, QFRET, IC50 (AID 743457);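 note: green fluorescence rise as the enzyme cleaves BODIPY PC-A2 in liposomes; potency for inhibition of the enzyme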
[11] = target: T1, Long-chain-fatty-acid--AMP ligase FadD28 (Mycobacterium tuberculosis, UniProt P9WQ59); test: Fluorescence polarization aasay to screen for inhibitors that compete for the binding of FadD28 to a bisubstrate Measured in Biochemical System Using Plate Reader - 2147-01_Inhibitor_Dose_CherryPick_Activity.; format: functional, Mycobacterium tuberculosis H37Rv
T1 sequence (P9WQ59 whole entry): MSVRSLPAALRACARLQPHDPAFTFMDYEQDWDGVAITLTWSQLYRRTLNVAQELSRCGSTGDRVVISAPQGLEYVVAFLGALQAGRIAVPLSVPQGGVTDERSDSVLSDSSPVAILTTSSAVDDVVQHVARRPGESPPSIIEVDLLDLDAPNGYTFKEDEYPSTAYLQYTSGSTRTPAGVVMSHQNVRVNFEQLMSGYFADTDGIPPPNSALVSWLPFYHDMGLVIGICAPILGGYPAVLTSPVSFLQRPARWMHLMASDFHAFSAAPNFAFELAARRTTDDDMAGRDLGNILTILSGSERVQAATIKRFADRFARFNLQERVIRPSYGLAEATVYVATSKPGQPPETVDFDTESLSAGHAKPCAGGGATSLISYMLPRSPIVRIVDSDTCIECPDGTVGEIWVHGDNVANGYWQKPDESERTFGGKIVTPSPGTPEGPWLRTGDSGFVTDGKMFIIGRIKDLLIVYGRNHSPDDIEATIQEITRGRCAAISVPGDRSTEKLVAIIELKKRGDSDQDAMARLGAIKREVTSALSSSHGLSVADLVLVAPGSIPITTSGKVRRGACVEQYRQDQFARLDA

H9c2 = test: cells; format: functional, cell-based; settings: Rattus norvegicus, H9c2, Myocardium;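 note: confirmatory concentration-response retest of ultra-high-throughput screening hits for modulation of myocardial damage; cell death induced by hydrogen peroxide oxidative stress; compound pretreatment for 60 min then peroxide exposure for 2 h; potency is for protecting the cells against peroxide damage rather than for killing them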
[12] = target: T2, Oxysterols receptor LXR-beta (Homo sapiens, UniProt P55055); format: functional, cell-based;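 note: agonist activity at LXR measured by a cell-based luminescence readout across a dose range, run as a counterscreen for daf-12 agonists; HEK293 cells with Gal4-LXR fusion and GAL4-driven luciferase reporter; potency for activation of Gal4-LXR reporter so compounds are agonists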
T2 sequence (P55055 whole entry): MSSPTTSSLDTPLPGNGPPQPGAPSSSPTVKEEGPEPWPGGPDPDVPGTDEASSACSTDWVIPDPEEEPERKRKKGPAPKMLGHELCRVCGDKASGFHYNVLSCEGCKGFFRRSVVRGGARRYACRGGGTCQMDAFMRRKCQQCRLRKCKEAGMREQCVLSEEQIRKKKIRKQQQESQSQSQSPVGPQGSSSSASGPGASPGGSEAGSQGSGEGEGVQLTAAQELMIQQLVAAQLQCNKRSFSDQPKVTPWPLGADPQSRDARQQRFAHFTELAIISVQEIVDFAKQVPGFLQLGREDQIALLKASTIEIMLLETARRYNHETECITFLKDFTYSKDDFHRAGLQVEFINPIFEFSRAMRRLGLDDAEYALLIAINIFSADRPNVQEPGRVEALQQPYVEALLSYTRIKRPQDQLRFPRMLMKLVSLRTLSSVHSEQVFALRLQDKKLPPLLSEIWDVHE

[13] = target: T3, Sentrin-specific protease 8 (Homo sapiens, UniProt Q96LD8); format: functional
T3 sequence (Q96LD8 whole entry): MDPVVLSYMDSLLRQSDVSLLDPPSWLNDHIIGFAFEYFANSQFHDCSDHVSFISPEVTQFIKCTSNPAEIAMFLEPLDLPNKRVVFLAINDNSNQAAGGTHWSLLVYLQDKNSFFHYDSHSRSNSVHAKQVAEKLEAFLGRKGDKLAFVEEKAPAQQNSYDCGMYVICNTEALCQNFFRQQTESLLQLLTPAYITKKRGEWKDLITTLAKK

[14] = cytotoxicity toward NIH3T3 fibroblasts, dose response, counter-screen, cell-based, ATP luminescence, mouse fibroblasts (AID 2010); format: functional;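 note: cells exposed to compound for about 90 hours before reading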
[15] = target: T3, Sentrin-specific protease 8; format: functional; remark: listed apart in the source
[16] = cytotoxicity in HEK-293T cells, dose response, cytotoxicity control for BCR NF-kB inhibitor project, luminescence, B-cell screen hits (AID 489021); format: functional, cell-based;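 note: HEK-293T cells carrying an NF-kB luciferase reporter; cells exposed to compound for about 14 hours before viability readout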
[17] = inhibitors of intracellular T. cruzi replication, confirmation, NIH3T3 host cells, beta-gal luminescence (AID 2044); format: functional, cell-based;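 note: intracellular parasites grown in NIH/3T3 mouse fibroblasts as host cells; luminescent beta-galactosidase reporter signal from transgenic T. cruzi replicating inside host cells; inhibitors lower the luminescence signal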
[18] = ADAM10 protease inhibitors, dose response, selectivity assay for ADAM17 exosite inhibitor project, biochemical, FRET peptide substrate, recombinant human ADAM10 (AID 743259);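 note: ADAM10 enzyme cleaving a FRET peptide substrate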
[19] = target: Disintegrin and metalloproteinase domain-containing protein 17 (Homo sapiens, UniProt P78536); test: exosite inhibitors of ADAM17, dose response, biochemical (AID 743260)
Sequence of Disintegrin and metalloproteinase domain-containing protein 17 (P78536 whole entry, the tested form may be a part): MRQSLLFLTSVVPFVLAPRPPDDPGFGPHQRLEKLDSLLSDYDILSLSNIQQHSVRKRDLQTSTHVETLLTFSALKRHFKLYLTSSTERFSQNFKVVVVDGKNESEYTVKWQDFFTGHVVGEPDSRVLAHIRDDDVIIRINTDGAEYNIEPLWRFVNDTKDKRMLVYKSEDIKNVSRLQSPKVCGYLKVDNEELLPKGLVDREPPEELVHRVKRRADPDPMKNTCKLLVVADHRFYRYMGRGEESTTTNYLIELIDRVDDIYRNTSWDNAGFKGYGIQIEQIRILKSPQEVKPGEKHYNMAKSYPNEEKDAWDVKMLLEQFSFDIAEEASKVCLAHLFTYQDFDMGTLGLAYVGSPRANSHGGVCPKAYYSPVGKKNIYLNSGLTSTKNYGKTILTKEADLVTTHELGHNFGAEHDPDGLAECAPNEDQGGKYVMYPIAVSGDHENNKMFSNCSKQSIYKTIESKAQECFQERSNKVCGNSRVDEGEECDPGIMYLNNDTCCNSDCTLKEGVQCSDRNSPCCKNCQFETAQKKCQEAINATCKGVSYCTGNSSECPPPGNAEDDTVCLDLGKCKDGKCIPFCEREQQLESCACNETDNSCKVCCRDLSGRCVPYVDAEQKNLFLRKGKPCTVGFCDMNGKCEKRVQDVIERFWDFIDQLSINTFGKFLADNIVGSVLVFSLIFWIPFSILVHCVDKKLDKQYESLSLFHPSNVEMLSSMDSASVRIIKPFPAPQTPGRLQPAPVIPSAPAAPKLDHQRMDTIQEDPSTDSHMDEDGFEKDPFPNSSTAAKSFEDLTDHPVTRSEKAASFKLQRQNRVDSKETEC

[20] = Late stage assay provider results from the probe development effort to identify inhibitors of the Plasmodium falciparum M17 Leucine Aminopeptidase (M17LAP): radiolabel-based cell-based dose response assay to identify compounds that inhibit P. falciparum growth in RBCs Set 2.; format: functional
[21] = HepG2 cell cytotoxicity, dose response, cytotoxicity control, cherry-picked samples (AID 1159577); format: functional, cell-based
[22] = P. falciparum Dd2 growth inhibitors, dose response, SYBR Green, cherry-picked samples (AID 1159567); format: functional, cell-based

For `CC(=O)c1c(C)n(C2CCCCC2)c2ccc(O)cc12`, the AC50 (HEK293) was 3.23 µM (active) and the IC50 (Interleukin-8) was > 79 µM (inactive).
For `Cc1ccc(S(=O)(=O)Nc2ccc3c(c2)C(=O)N([C@H](C)CO)C[C@H](C)[C@@H](CN(C)S(=O)(=O)c2cccs2)OCCCC[C@H](C)O3)cc1`, the AC50 [1] was > 70 µM (inactive), the AC50 (Paired box protein Pax-8) was 4.23 µM (active) and the AC50 [2] was 20.5 µM (active).
With `COc1ccc(-c2coc3c(C(=O)NCc4ccc(OC)c(OC)c4)cccc23)c(C)c1` the AC50 [3] was 1.4 µM (active), the IC50 (Galanin receptor type 3) was 0.358 µM (active) and the AC50 [4] was 1.77 µM (active). For the same compound, the AC50 [5] was 0.722 µM (active) and the EC50 (cells) was > 29.9 µM (inactive).
In the case of `COc1ccc(C2=Nn3c(nnc3-c3ccncc3)SC2)cc1`, the AC50 [6] is reported as 1.13 µM (active), the AC50 [7] is reported as 2.34 µM (active) and the AC50 [8] is reported as 1.03 µM (active). The IC50 (Interleukin-8) was 40.8 µM (inactive) and the AC50 [9] was 2.02 µM (active).
For `CCc1ccc(/C=C(/C#N)C(N)=S)cc1`, the IC50 [10] was > 122 µM (inactive).
With `CCOC(=O)N1CCN(S(=O)(=O)c2ccc(C(=O)NNc3nc4c(C)cccc4s3)cc2)CC1` the AC50 [11] was 22.1 µM (active), the IC50 (H9c2) was 14.2 µM (active) and the IC50 [10] was 25.9 µM (inactive).
For `Cc1ccc2nc(-c3ccccn3)oc2c1`, the EC50 [12] was > 67.6 µM (inactive).
For `Cc1ccc(Sc2cc(NCCCO)c([N+](=O)[O-])c3nonc23)cc1`, the IC50 [13] was 23.3 µM (active), the EC50 [14] was > 60 µM (not active) and the IC50 [15] was 18.1 µM (active). For the same compound, the IC50 [16] was > 80 µM (inactive) and the EC50 [17] was 2.2 µM (active).
In the case of `COc1cccc(CN2C(=O)[C@@H]3Cc4c([nH]c5ccccc45)C(C)(C)N3C2=O)c1`, the IC50 [18] is reported as > 69.4 µM (inactive) and the IC50 [19] is reported as > 69.4 µM (inactive).
In the case of `CCCCOc1ccc(CNc2c(N(C)O)c(=O)c2=O)cc1`, the IC50 [20] is reported as 19 µM (inactive).
In the case of `C[C@@H]1CN([C@@H](C)CO)C(=O)c2cccc(NC(=O)Nc3cccc4ccccc34)c2O[C@@H]1CN(C)Cc1ccc(C(=O)Nc2ccccc2N)cc1`, the AC50 [21] is reported as 12.1 µM (active) and the AC50 [22] is reported as < 0.3 µM (active).
For `CC(C)(C)OC(=O)N1CCCC(C(=O)Nc2cccc(C(=O)NCCCCc3ccccc3)c2)C1` (configuration not stated), the IC50 [18] was > 69.5 µM (inactive) and the IC50 [19] was > 69.5 µM (inactive).
